Measurements: patent US7915270B2, “Oxazole ketones as modulators of fatty acid amide hydrolase” (The Scripps Research Institute, priority 2006, dated 2011)
Like-named read-outs stand apart in the source and are kept apart here.

Legend:
[1] = molecular target: T1, Rat FAAH (Rattus norvegicus, UniProt P97612); assay: Assay Method 2: FAAH assay, 3H-anandamide hydrolysis in cell homogenate (SK-N-MC cells transfected with rat FAAH); assay type: biochemical; conditions: 3H-AEA 80 nM, rt 1 h, pH 9
T1 construct: expressed in transfected cells
T1 sequence (P97612 1-579): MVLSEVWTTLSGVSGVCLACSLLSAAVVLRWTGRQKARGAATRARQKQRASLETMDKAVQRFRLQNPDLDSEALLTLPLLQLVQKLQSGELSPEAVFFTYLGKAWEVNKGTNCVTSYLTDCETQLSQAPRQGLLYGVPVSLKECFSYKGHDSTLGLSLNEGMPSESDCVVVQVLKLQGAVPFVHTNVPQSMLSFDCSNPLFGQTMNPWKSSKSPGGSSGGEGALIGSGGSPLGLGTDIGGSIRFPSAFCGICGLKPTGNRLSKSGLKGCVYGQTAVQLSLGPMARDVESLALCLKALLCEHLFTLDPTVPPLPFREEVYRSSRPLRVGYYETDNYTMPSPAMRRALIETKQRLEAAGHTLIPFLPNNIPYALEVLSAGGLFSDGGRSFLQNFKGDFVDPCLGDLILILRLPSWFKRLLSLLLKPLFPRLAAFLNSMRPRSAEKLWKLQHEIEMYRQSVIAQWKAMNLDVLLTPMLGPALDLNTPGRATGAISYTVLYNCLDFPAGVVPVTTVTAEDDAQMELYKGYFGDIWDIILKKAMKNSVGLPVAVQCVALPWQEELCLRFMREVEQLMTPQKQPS

[2] = Pharmacokinetic testing, intravenous bolus in rats; assay type: in vivo; conditions: rat, plasma, 2 mg/kg, male Sprague Dawley rats, 1 mg/mL in 2 mL/kg
Method: For each test compound, two male Sprague Dawley Rats (Charles River Laboratories; approx. 300 g body weight) were used. Animals were individually housed, provided food and water ad libitum, and were maintained on a 12 h light and dark cycle. Animals received from the vendor were surgically cannulated by the vendor with right jugular vein and left carotid artery catheters. Animals were acclimatized for at least 5 days after receipt from the vendor prior to investigations.
Animals received a bolus intravenous dose of the test compound at a dose of 1 mg/mL in a volume of 2 mL/kg via the right jugular vein catheter. The intravenous dosing solution was prepared in 55% pharmasolve, 20% cremophor, and […] physiological saline, or 100% saline adjusted to pH 8.0.
Following intravenous administration, blood was collected (sampled 0.35 mL per time point from the left carotid artery catheter) at 0.083, 0.25, 0.5, 1, 2, 4, and 6 h post-dose. Blood was collected into tubes containing EDTA and stored at 4° C. for not more than 2 h. The samples were centrifuged at 10,000 rpm in a micro-centrifuge for 5 min to obtain a plasma fraction. The plasma was stored at between −20 and −80° C. until processed for analysis. These samples were analyzed by LC-MS/MS to determine the plasma level of the compound.
Plasma level vs. time plots were created and WinNonlin (Pharsight Corp.) was used to analyze the data. A non-compartmental pharmacokinetic model was used to determine the pharmacokinetic parameters, including clearance, volume of distribution (Vd), and half-life (t1/2).

[3] = molecular target: T2, FAAH (Rattus norvegicus, UniProt P97612); assay: Assay Method 1A: FAAH enzyme assay, 14C-oleamide hydrolysis, solubilized liver plasma membrane extract;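 further: ki obtained by Dixon analysis, taking the x-intercept of inhibitor concentration versus reciprocal rate plots at fixed substrate level and correcting for substrate concentration relative to Km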
T2 sequence (P97612 1-579): T1 sequence (P97612 1-579)
Method: Linear least squares fits were used for all reaction progress curves and R^2 values were consistently >0.97. […] Ki values were determined by the Dixon Method (x-intercepts of weighted linear fits of [I] versus 1/rate plots at constant substrate concentration, which were converted to Ki values using the formula Ki=−xint/[1+[S]/Km]).

IC50 [1] | Vd [2] | clearance [2] | half-life [2] | Ki ([3]; read-out: Assay 1A Ki, liver plasma membrane extract containing FAAH, 14C-oleamide, pH 9.0, 20-23 °C, Dixon method) | Ki [3] | Structure (SMILES)
11 nM | 0.86 L/kg | 7.67 mL/min/kg | 74.4 min | 20 nM |  | O=C(O)c1cccc(-c2cnc(C(=O)CCCCCCc3ccccc3)o2)n1 [Example 37, 6-(2-(7-Phenylheptanoyl)oxazol-5-yl)picolinic acid]
2 nM | 1.4 L/kg | 112 mL/min/kg | 9 min |  | 7 nM | O=C(O)c1ccc(-c2cnc(C(=O)CCCCCCc3ccccc3)o2)nc1 [Example 38, 6-(2-(7-Phenylheptanoyl)oxazol-5-yl)nicotinic acid]
